# Target: T1, NBCe1B/C (electrogenic Na-HCO3 cotransporter) (Rattus norvegicus, UniProt Q9JI66)
# T1 construct: gene Slc4a4; native transporter in basolateral membrane vesicles of rat proximal colon (amiloride-insensitive component)
# T1 sequence (Q9JI66 1-1079): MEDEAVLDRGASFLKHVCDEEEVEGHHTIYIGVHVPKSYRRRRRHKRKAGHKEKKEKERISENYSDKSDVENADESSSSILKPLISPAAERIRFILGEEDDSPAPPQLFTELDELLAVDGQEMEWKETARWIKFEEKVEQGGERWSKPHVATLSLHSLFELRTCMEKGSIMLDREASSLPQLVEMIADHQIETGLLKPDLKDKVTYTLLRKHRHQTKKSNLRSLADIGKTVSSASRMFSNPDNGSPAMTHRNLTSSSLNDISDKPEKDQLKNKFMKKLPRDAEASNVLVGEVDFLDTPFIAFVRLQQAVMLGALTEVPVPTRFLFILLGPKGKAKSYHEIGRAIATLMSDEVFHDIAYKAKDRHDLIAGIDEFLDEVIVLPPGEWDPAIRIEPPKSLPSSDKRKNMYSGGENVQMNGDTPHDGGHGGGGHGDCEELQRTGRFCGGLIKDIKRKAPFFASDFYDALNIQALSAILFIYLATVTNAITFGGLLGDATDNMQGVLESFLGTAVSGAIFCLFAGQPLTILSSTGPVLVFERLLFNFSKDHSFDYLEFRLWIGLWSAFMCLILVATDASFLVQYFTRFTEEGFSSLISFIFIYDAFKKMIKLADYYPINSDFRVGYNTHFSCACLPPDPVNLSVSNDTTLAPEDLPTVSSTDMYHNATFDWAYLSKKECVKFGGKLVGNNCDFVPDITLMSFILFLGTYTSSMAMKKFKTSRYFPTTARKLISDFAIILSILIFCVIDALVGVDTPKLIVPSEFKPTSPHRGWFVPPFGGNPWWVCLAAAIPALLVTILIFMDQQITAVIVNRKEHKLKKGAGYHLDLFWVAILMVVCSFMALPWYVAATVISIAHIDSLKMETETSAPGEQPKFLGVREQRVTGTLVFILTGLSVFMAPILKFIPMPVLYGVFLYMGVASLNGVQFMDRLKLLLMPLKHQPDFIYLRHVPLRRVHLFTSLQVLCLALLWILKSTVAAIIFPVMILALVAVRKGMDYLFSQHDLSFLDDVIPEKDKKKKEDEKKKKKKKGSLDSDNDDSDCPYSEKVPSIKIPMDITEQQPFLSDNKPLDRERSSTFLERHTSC
# Experiment: inhibition of proton/HCO3 gradient-driven […] uptake in native membrane vesicles
# Format: biochemical
compound,measurement,value
O=S(=O)(O)c1cc(N=C=S)ccc1/C=C/c1ccc(N=C=S)cc1S(=O)(=O)O [DIDS],Ki,8.9 ± 1.2 µM

# From article PMC3653958, “Identification of Functionally Distinct Na-HCO3 Co-Transporters in Colon” (PLoS ONE, 2013)
